Our source for the IC50 values is US9447038B2 (SANOFI, priority 2012, dated 2016).

The term IC50 denotes the concentration that inhibits the measured activity by half.

Counter-ions that a name gives are not always drawn.

Sequence of human CXCR3-A receptor (P49682 whole entry): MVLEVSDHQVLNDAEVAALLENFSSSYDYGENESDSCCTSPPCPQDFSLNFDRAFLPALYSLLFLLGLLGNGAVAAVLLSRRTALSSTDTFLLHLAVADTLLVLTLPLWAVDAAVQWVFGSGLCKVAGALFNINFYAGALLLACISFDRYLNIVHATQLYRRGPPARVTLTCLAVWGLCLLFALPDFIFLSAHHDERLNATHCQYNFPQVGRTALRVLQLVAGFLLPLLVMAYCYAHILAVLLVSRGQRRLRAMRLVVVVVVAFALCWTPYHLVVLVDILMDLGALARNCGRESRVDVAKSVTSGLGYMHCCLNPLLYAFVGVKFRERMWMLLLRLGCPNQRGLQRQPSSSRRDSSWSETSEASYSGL

This assay has as its target human CXCR3-A receptor (Homo sapiens (Human), UniProt P49682). Description: 125I-CXCL10 competition radioligand binding assay.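 Further: One-hour incubation of membranes with tracer, bound radioligand separated by glass fibre filtration, IC50 derived from four-parameter nonlinear fit of competition curves.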 The settings on record: displacement of 125I-CXCL10 from membranes of CHO cells expressing human recombinant CXCR3-A. (In general: In a radioligand displacement assay an active substance lowers the binding of a labelled ligand.)
For `CCCN(Cc1ccc(OCCN2C(=O)CCC2=O)c(CC)c1)C(c1ccc(Cl)cc1)C1(C(=O)O)CC1` (centres unmarked) [Example 196, 1-[(4-Chloro-phenyl)-({4-[2-(2,5-dioxo-pyrrolidin-1-yl)-ethoxy]-3-ethyl-benzyl}-propyl-amino)-methyl]-cyclopropanecarboxylic acid], the IC50 turned out to be 630 nM.

For the molecule `CCCCN(Cc1ccc(CCCN2C(=O)CCC2=O)c(C)c1)C(CC(=O)O)c1ccc2c(c1)CCO2` (centres unmarked) [Example 177, 3-(Butyl-{4-[3-(2,5-dioxo-pyrrolidin-1-yl)-propyl]-3-methyl-benzyl}-amino)-3-(2,3-dihydro-benzofuran-5-yl)-propionic acid], the IC50 was determined as 255 nM.

As to `CCc1cc(CN(CC2CC2)C(CC(=O)O)c2ccc(Cl)c(Cl)c2)ccc1OCCN1C(=O)CCC1=O` (centres unmarked) [Example 96, 3-(Cyclopropylmethyl-{4-[2-(2,5-dioxo-pyrrolidin-1-yl)-ethoxy]-3-ethyl-benzyl}-amino)-3-(3,4-dichloro-phenyl)-propionic acid], the IC50 turned out to be 78 nM.

On to `Cc1cc(CN(CC(C)C)C(CC(=O)O)c2ccc(Cl)cc2)ccc1CCCN1C(=O)CCC1=O` (centres unmarked) [Example 137, 3-(4-Chloro-phenyl)-3-({4-[3-(2,5-dioxo-pyrrolidin-1-yl)-propyl]-3-methyl-benzyl}-isobutyl-amino)-propionic acid], for which the 50% inhibitory concentration (IC50) was 240 nM.

Take `O=C(O)CC(c1ccc(Cl)cc1)N(Cc1ccc(OCCN2C(=O)CCC2=O)c(F)c1)CC1CCCC1` (centres unmarked) [Example 56, 3-(4-Chloro-phenyl)-3-(cyclopentylmethyl-{4-[2-(2,5-dioxo-pyrrolidin-1-yl)-ethoxy]-3-fluoro-benzyl}-amino)-propionic acid]: the IC50 turned out to be 52 nM.

Turning to `Cc1cc(CN(CC2CC2)C(CC(=O)O)c2ccc3c(c2)CCO3)ccc1OCCn1c(=O)ccn(C)c1=O` (centres unmarked) [Example 131, 3-(Cyclopropylmethyl-{3-methyl-4-[2-(3-methyl-2,6-dioxo-3,6-dihydro-2H-pyrimidin-1-yl)-ethoxy]-benzyl}-amino)-3-(2,3-dihydro-benzofuran-5-yl)-propionic acid], the IC50 came to 42 nM.

For the molecule `CCCN(Cc1ccc(OCCN2C(=O)CCC2=O)c(OC)c1)C(CC(=O)O)c1ccc(Cl)c(F)c1` (centres unmarked) [Example 41, 3-(4-Chloro-3-fluoro-phenyl)-3-({4-[2-(2,5-dioxo-pyrrolidin-1-yl)-ethoxy]-3-methoxy-benzyl}-propyl-amino)-propionic acid], the 50% inhibitory concentration (IC50) is 107 nM.

For `Cc1cc(CN(CC2CCCC2)[C@H](CC(=O)O)c2ccc(Cl)c(F)c2)ccc1OCCN1C(=O)CN(C)C1=O` [Example 33, (R)-3-(4-Chloro-3-fluoro-phenyl)-3-(cyclopentylmethyl-{3-methyl-4-[2-(3-methyl-2,5-dioxo-imidazolidin-1-yl)-ethoxy]-benzyl}-amino)-propionic acid], the IC50 came out at 86 nM.

On to `COc1cc(CN(CC(C)C)[C@@H](C(=O)O)c2ccc(Cl)c(Cl)c2)ccc1OCCN1C(=O)CCC1=O` [Example 110, (R)-(3,4-Dichloro-phenyl)-({4-[2-(2,5-dioxo-pyrrolidin-1-yl)-ethoxy]-3-methoxy-benzyl}-isobutyl-amino)-acetic acid], for which the IC50 amounted to 786 nM.

Consider `CCCCN(Cc1ccc(CCCN2C(=O)CCC2=O)c(OC)c1)C(CC(=O)O)c1ccc(Cl)cc1` (centres unmarked) [Example 135, 3-(Butyl-{4-[3-(2,5-dioxo-pyrrolidin-1-yl)-propyl]-3-methoxy-benzyl}-amino)-3-(4-chloro-phenyl)-propionic acid], for which the IC50 was determined as 116 nM.

Take `CCCN(Cc1ccc(OCCN2C(=O)CCC2=O)c(OC)c1)C(CC(=O)O)c1cc(C)sc1C` (centres unmarked) [Example 204, 3-(2,5-Dimethyl-thiophen-3-yl)-3-({4-[2-(2,5-dioxo-pyrrolidin-1-yl)-ethoxy]-3-methoxy-benzyl}-propyl-amino)-propionic acid; hydrochloride]: the IC50 amounted to 197 nM.

On to `CCCCN(Cc1ccc(OCCN2C(=O)CCC2=O)c(F)c1)C(CC(=O)O)c1ccc(Cl)c(F)c1` (centres unmarked) [Example 59, 3-(Butyl-{4-[2-(2,5-dioxo-pyrrolidin-1-yl)-ethoxy]-3-fluoro-benzyl}-amino)-3-(4-chloro-3-fluoro-phenyl)-propionic acid], for which the IC50 was found to be 109 nM.

With `COc1cc(CN(CC2CCCCC2)C(CC(=O)O)c2ccc3c(c2)CCO3)ccc1OCCn1c(=O)ccn(C)c1=O` (centres unmarked) [Example 128, 3-(Cyclohexylmethyl-{3-methoxy-4-[2-(3-methyl-2,6-dioxo-3,6-dihydro-2H-pyrimidin-1-yl)-ethoxy]-benzyl}-amino)-3-(2,3-dihydro-benzofuran-5-yl)-propionic acid], the IC50 turned out to be 118 nM.

As for `CCc1cc(CN(CC(C)C)C(CC(=O)O)c2ccc(Cl)c(Cl)c2)ccc1OCCN1C(=O)CCC1=O` (centres unmarked) [Example 98, 3-(3,4-Dichloro-phenyl)-3-({4-[2-(2,5-dioxo-pyrrolidin-1-yl)-ethoxy]-3-ethyl-benzyl}-isobutyl-amino)-propionic acid], the IC50 was 130 nM.

As for `CCCN(Cc1ccc(OCCN2C(=O)CCC2=O)c(CC)c1)C(CC(=O)O)c1ccc(Cl)c(F)c1` (centres unmarked) [Example 91, 3-(4-Chloro-3-fluoro-phenyl)-3-({4-[2-(2,5-dioxo-pyrrolidin-1-yl)-ethoxy]-3-ethyl-benzyl}-propyl-amino)-propionic acid], the IC50 amounted to 56 nM.

Consider `CCCN(Cc1ccc(SCCN2C(=O)CCC2=O)c(OC)c1)C(CC(=O)O)c1ccc(Cl)c(Cl)c1` (centres unmarked) [Example 192, 3-(3,4-Dichloro-phenyl)-3-({4-[2-(2,5-dioxo-pyrrolidin-1-yl)-ethylsulfanyl]-3-methoxy-benzyl}-propyl-amino)-propionic acid], for which the IC50 is 55 nM.

`CCCN(Cc1ccc(OCCn2c(=O)ccn(C)c2=O)c(OC)c1)C(CC(=O)O)c1ccc(Cl)cc1Cl` (centres unmarked) [Example 159, 3-(2,4-Dichloro-phenyl)-3-({3-methoxy-4-[2-(3-methyl-2,6-dioxo-3,6-dihydro-2H-pyrimidin-1-yl)-ethoxy]-benzyl}-propyl-amino)-propionic acid]: the IC50 amounted to 354 nM.

`Cc1cc(CN(CC(C)C)C2c3ccc(Cl)cc3CC2C(=O)O)ccc1OCCN1C(=O)CCC1=O` (centres unmarked) [Example 174, 5-Chloro-1-({4-[2-(2,5-dioxo-pyrrolidin-1-yl)-ethoxy]-3-methyl-benzyl}-isobutyl-amino)-indan-2-carboxylic acid]: the IC50 is 800 nM.

With `CN1CC(=O)N(CCOc2ccc(CN(CC3CCCCC3)[C@H](CC(=O)O)c3ccc(Cl)cc3)cc2Cl)C1=O` [Example 202, (R)-3-({3-Chloro-4-[2-(3-methyl-2,5-dioxo-imidazolidin-1-yl)-ethoxy]-benzyl}-cyclohexylmethyl-amino)-3-(4-chloro-phenyl)-propionic acid], the half-inhibitory concentration (IC50) stood at 810 nM.

Take `O=C(O)CC(c1ccc(Cl)cc1)N(Cc1ccc(OCCN2C(=O)CCC2=O)c(F)c1)CC1CCCCC1` (centres unmarked) [Example 57, 3-(4-Chloro-phenyl)-3-(cyclohexylmethyl-{4-[2-(2,5-dioxo-pyrrolidin-1-yl)-ethoxy]-3-fluoro-benzyl}-amino)-propionic acid]: the IC50 was found to be 212 nM.

For `COc1cc(CN(CC2CCCCC2)C(CC(=O)O)c2ccc3c(c2)CCO3)ccc1OCCN1C(=O)CCC1=O` (centres unmarked) [Example 148, 3-(Cyclohexylmethyl-{4-[2-(2,5-dioxo-pyrrolidin-1-yl)-ethoxy]-3-methoxy-benzyl}-amino)-3-(2,3-dihydro-benzofuran-5-yl)-propionic acid], the IC50 was determined as 28 nM.

With `CCCN(Cc1ccc(OCCN2C(=O)CCC2=O)c(C)c1)C(CC(=O)O)c1ccc(C)cc1` (centres unmarked) [Example 178, 3-({4-[2-(2,5-Dioxo-pyrrolidin-1-yl)-ethoxy]-3-methyl-benzyl}-propyl-amino)-3-p-tolyl-propionic acid], the IC50 came out at 183 nM.

For the molecule `COc1cc(CN(CC2CCCC2)C(CC(=O)O)c2ccc(Cl)cc2Cl)ccc1OCCN1C(=O)CCC1=O` (centres unmarked) [Example 3, 3-(Cyclopentylmethyl-{4-[2-(2,5-dioxo-pyrrolidin-1-yl)-ethoxy]-3-methoxy-benzyl}-amino)-3-(2,4-dichloro-phenyl)-propionic acid], the IC50 came to 120 nM.

As to `COc1cc(CN(CC2CCCC2)C(CC(=O)O)c2ccc(C)cc2)ccc1OCCN1C(=O)CCC1=O` (centres unmarked) [Example 179, 3-(Cyclopentylmethyl-{4-[2-(2,5-dioxo-pyrrolidin-1-yl)-ethoxy]-3-methoxy-benzyl}-amino)-3-p-tolyl-propionic acid], the IC50 turned out to be 91 nM.

Consider `O=C(O)CC(c1ccc(Cl)c(Cl)c1)N(Cc1ccc(OCCN2C(=O)CCC2=O)c(Cl)c1)CC1CC1` (centres unmarked) [Example 106, 3-({3-Chloro-4-[2-(2,5-dioxo-pyrrolidin-1-yl)-ethoxy]-benzyl}-cyclopropylmethyl-amino)-3-(3,4-dichloro-phenyl)-propionic acid; hydrochloride], for which the IC50 came to 223 nM.

Take `Cc1cc(CN(CC2CCCC2)[C@@H](CC(=O)O)c2ccc(Cl)c(F)c2)ccc1OCCN1C(=O)CN(C)C1=O` [Example 32, (S)-3-(4-Chloro-3-fluoro-phenyl)-3-(cyclopentylmethyl-{3-methyl-4-[2-(3-methyl-2,5-dioxo-imidazolidin-1-yl)-ethoxy]-benzyl}-amino)-propionic acid]: the 50% inhibitory concentration (IC50) came out at 69 nM.

On to `O=C(O)CC(c1ccc(Cl)cc1)N(Cc1ccc(OCCN2C(=O)CCC2=O)c(Cl)c1)CC1CC1` (centres unmarked) [Example 102, 3-({3-Chloro-4-[2-(2,5-dioxo-pyrrolidin-1-yl)-ethoxy]-benzyl}-cyclopropylmethyl-amino)-3-(4-chloro-phenyl)-propionic acid; hydrochloride], for which the IC50 came to 83 nM.

`COc1cc(CN(CC(C)C)C(CC(=O)O)c2ccc3c(c2)CCO3)ccc1CCCN1C(=O)CCC1=O` (centres unmarked) [Example 141, 3-(2,3-Dihydro-benzofuran-5-yl)-3-({4-[3-(2,5-dioxo-pyrrolidin-1-yl)-propyl]-3-methoxy-benzyl}-isobutyl-amino)-propionic acid]: the IC50 turned out to be 43 nM.

With `Cc1cc(CN(CCC(F)(F)F)C(CC(=O)O)c2ccc(Cl)c(Cl)c2)ccc1OCCN1C(=O)CCC1=O` (centres unmarked) [Example 167, 3-(3,4-Dichloro-phenyl)-3-[{4-[2-(2,5-dioxo-pyrrolidin-1-yl)-ethoxy]-3-methyl-benzyl}-(3,3,3-trifluoro-propyl)-amino]-propionic acid], the IC50 was 2440 nM.
